Experiments:
HEK293 cell lysates = assay: KAYAK in vitro kinase assay, individual reactions, lysates of starved, insulin- or EGF-stimulated HEK293 cells; type: biochemical, human
Procedure: For stimulation of HEK293 cells or HeLa lines, cells were treated with insulin (100 nM; 10-30 min) EGF (50 ng/ml; 10 min) or phorbol 12-myristate 13-acetate (PMA; 50 or 100 ng/ml; 10 -30 min) at 37° C. for the indicated times after overnight serum-starvation.
For cell lysis, the media were removed, and cells were washed with ice-cold phosphate-buffered saline (PBS) and lysed with ice-cold lysis buffer (10 mM K2HPO4 pH 7.5, 1 mM EDTA, 10 mM MgCl2, 50 mM β-glycerophosphate, 5 mM EGTA, 0.5% Nonidet P-40, 0.1% Brij 35, 0.1% deoxycholic acid, 1mM sodium orthovanadate, 1mM phenylmethyl-sulfonyl fluoride, 5 μg/ml leupeptin and 5 μg/ml pepstatin A). Lysates were centrifuged at 10,000 rpm for 10 min to remove cell debris, and clear supernatant was used for immunoblotting and in vitro kinase assays. Protein concentration was determined by Bradford assay (Biorad, Hercules, Calif.).
Peptides were synthesized, purified and quantified as described in Yu et al. 2009 Proc Natl Acad Sci USA 106: 11606-11611, hereby incorporated by reference herein in its entirety. Each substrate peptide (250 pmol) was mixed to a final concentration of 5 μM in the 50 μL reaction mixture. Alternatively, reactions were performed using 6 μg cell lysate aliquotes mixed to a final volume of 20 μl. Cell lysate or other kinase source was added to the substrate mixture in 25 mM Tris-Cl, pH 7.5, containing 5 mM ATP, 7.5 mM MgCl2, 0.2 mM EGTA, 7.5 mM β-glycerophosphate, 0.1 mM Na3VO4, and 0.1 mM DTT. The reaction was incubated at 25° C. for 60 min and then terminated by the addition of 100 μl of 1% trifluoroacetic acid (TFA) containing a known amount of an internal standard (typically 20 pmol). Alternatively, the reaction was incubated at 20° C. for 45 min before termination with TFA.
Forty-five individual in vitro kinase reaction mixtures were combined and desalted by using Sep-Pak C18 cartridge (Waters, Milford, Mass.). Phosphopeptides were enriched by immobilized metal ion chromatography (IMAC) with 20 μl of beads (Phos-Select iron affinity gel; Sigma, St. Louis, Mo.) and subsequently desalted by using Empore C18 solid phase extraction disks (3M, St. Paul, Minn.) as described previously.
Quantitation of the target peptide-internal standard ratios was performed by first constructing the extracted ion chromatogram for the most abundant charge state for each peptide using a ±10 ppm window. Chromatograms were integrated using Qual/Quan browser (Xcalibur 2.0.5, Thermo Fisher, San Jose, Calif.). Since the phosphorylated peptides generated from the in vitro kinase reactions were chemically identical to the internal standards, they were assumed to have the same ionization efficiency. Therefore, the amount of each phosphorylated peptide was calculated by direct ratio to the internal standard level.
To test substrate suitability in a multiplexed assay, the phosphorylation activities were measured using […] of each substrate peptide, 6 μg lysate, and 5 mM ATP in a plate format. Reactions proceeded for 60 minutes followed by acidification and the addition of isotope-labeled reference peptides. After pooling 45 samples, phosphopeptide enrichment was followed by liquid-chromatography (LC) separation and on-line peptide detection by high-resolution mass spectrometry.
The ability of the peptides to report specific changes in kinase activation after pathway stimulation was examined herein. Lysates from HEK293 cells were collected after insulin or EGF treatment and were compared to their activities in the serum-starved state using the KAYAK approach. Western blot analysis of lysates from cells in which the PI3K and MAPK pathways were activated, as indicated by elevated phospho-Akt and phospho-ERK1/2 levels, respectively, is shown in FIG. 1D. […]

activated, purified Akt = biological target: T1, activated, purified Akt (Homo sapiens, UniProt P31749); assay: In vitro peptide phosphorylation by purified Akt; type: biochemical; settings: 100 μM peptide, individually reacted
T1 construct: Purified human active kinases of Akt1 (full length); purchased Cell Signaling Technology (Danvers, Mass.)
T1 sequence (P31749 whole entry): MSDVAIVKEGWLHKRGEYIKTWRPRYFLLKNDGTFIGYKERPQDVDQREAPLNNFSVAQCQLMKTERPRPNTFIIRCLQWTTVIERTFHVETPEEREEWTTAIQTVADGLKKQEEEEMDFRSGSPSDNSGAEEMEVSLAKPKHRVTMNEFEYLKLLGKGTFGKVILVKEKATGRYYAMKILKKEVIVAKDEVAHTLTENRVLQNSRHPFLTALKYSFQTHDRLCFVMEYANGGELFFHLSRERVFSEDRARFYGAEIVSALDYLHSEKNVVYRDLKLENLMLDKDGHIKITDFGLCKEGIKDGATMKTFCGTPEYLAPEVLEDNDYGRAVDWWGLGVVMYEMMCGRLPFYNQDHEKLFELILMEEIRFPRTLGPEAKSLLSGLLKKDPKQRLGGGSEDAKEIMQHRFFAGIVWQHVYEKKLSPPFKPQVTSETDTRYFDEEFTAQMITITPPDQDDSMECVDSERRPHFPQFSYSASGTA
Text: Reaction mixture was supplemented with 0.1% BSA. Other conditions were the same as in FIG. 10A.
Purified human active kinases of Akt1 (full length), extracellular signal-regulated kinase 1 (ERK1, 1-379), mitogen-activated protein kinase kinase 1 (MEK1, 1-393), 90 kDa ribosomal S6 kinases 1 (RSK1, 1-735), cAMP-dependent protein kinase (PKA) catalytic subunit-α (PKA Cα, 1-351), protein kinase Cα (PKCα, full length), epidermal growth factor (EGF) receptor (EGFR, 672-1210), platelet-derived growth factor (PDGF) receptor α (PDGFRα, 550-1090), vascular endothelial growth factor (VEGF) receptor 1 (VEGFR1 784-1338), Src (full length), casein kinase 2 (CK2, full length), Aurora A (1-403), AMP-activated protein kinase α1β1γ1 (AMPK α1β1γ1, full length), glycogen synthase kinase-3α (GSK-3α, 1-483) and MAP/microtubule affinity-regulating kinase 1 (MARK 1, full length) were obtained from Cell Signaling Technology (Danvers, Mass.). Cdc2/cyclin B1 (full length) and insulin-like growth factor (IGF)-I receptor (IGFIR, 959-1367) were obtained from Upstate (Temecula, Calif.).
Peptides were synthesized, purified and quantified as described in Yu et al. 2009 Proc Natl Acad Sci USA 106: 11606-11611, hereby incorporated by reference herein in its entirety. […] Alternatively, reactions were performed using 6 μg cell lysate aliquotes mixed to a final volume of 20 μl. […]

## RIRTQSFSLQPFR (The sequence was designed and synthesized) [F6]
HEK293 cell lysates; EGF-stimulated compared to starved HEK293 cells
  E: changed phosphorylation in EGF stimulated condition: ++ (A change of more than +4 and −4 fold is indicated by “++” and “−−”, respectively.)
HEK293 cell lysates; insulin-stimulated compared to starved HEK293 cells
  I: changed phosphorylation in insulin stimulated condition: + (A change of more +2 fold and −2 fold is indicated by “+” and “−”, respectively.)
activated, purified Akt
  phosphorylation by Akt: strong phosphorylation

Reference: patent US10407712B2, “Methods, compositions and kits for high throughput kinase activity screening using mass spectrometry and stable isotopes” (President and Fellows of Harvard College, priority 2008, dated 2019)
